These molecules were tested against T1, HCV NS5B polymerase (Hepatitis C virus genotype 1b, UniProt P26663) (assay: Assay for inhibition of HCV NS5B polymerase (RdRp, 3H-UTP incorporation on heteromeric RNA template)). Conditions: heterogeneous template dCoh, 2 nM DC55-lb.BK or 10 nM DC55-2b.2, NTPs 1 uM, room temperature 2 hours.
T1 construct: RNA-dependent RNA polymerase (NS5B) of the hepatitis C virus (HCV)
T1 sequence (P26663 2420-2955): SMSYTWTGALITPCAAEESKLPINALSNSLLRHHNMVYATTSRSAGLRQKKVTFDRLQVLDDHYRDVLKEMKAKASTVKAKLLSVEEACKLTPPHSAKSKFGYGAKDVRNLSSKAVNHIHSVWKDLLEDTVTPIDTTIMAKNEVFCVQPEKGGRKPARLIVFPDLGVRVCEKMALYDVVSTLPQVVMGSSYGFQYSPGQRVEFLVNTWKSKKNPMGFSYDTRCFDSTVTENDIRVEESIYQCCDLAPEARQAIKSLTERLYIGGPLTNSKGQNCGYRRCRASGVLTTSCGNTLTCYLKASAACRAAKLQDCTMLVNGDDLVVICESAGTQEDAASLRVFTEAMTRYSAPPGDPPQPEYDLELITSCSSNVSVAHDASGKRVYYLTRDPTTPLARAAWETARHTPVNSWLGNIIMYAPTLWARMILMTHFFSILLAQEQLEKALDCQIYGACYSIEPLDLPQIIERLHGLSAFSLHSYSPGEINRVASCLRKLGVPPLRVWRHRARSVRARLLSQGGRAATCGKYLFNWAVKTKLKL
Format: biochemical
Description: The effectiveness of the compounds of the present invention as inhibitors of HCV NS5B RNA-dependent RNA polymerase (RdRp) was measured in the following assay.
This assay was used to measure the ability of the nucleoside derivatives of the present invention to inhibit the enzymatic activity of the RNA-dependent RNA polymerase (NS5B) of the hepatitis C virus (HCV) on a heteromeric RNA template.
Assay Buffer Conditions: (52.5 μL-total/reaction)
20 nM heterogeneous template dCoh
2.5 μl/reaction inhibitor compound in H2O
The compounds were tested at various concentrations up to 100 μM final concentration. Nucleoside derivatives were pipetted into wells of a 96-well plate. The enzyme diluted in the reaction buffer was pipetted into the wells and incubated at room temperature for 10 minutes; then the template dCoh was added and incubated for 10 minutes at room temperature. The reaction was initiated by addition of a mixture of nucleotide triphosphates (NTP's), including the radiolabeled UTP, and allowed to proceed at room temperature for 2 hours. Blank samples were done omitting the dCoh template. The reaction was quenched by addition of 50 ul TCA 20% (trichloroacetic acid)/NaPPi 20 mM and the plates were put in ice for 5 minutes. Then, the mixtures were filtered onto Unifilter GF/B 96-well plates (PerkinElmer), washed with TCA 2.5%. 50 ul/well of scintillator solution (Microscint 20, PerkinElmer) were added and the plates were counted in a scintillator counter.
The percentage of inhibition was calculated according to the following equation:
% Inhibition=[1−(cpm in test reaction−cpm in blank)/(cpm in control reaction−cpm in blank)]×100.
In the case of `C[C@@]1(O)[C@H](O)[C@@H](COP(=O)(O)OP(=O)(O)OP(=O)(O)O)O[C@H]1n1cc(-c2ncon2)c2c(N)ncnc21` [Compound 16, 7-(2-C-methyl-5-triphospho-β-D-ribofuranosyl)-5-(1,2,4-oxadiazol-3-yl)-7H-pyrrolo[2,3-d]pyrimidin-4-amine], the IC50 is reported as < 1 µM.
In the case of `C[C@@]1(O)[C@H](O)[C@@H](COP(=O)(O)OP(=O)(O)OP(=O)(O)O)O[C@H]1n1cc(-c2cn[nH]c2)c2c(N)ncnc21` [Compound 15, 7-(2-C-methyl-5-triphospho-β-D-ribofuranosyl)-5-(1H-pyrazol-4-yl)-7H-pyrrolo[2,3-d]pyrimidin-4-amine], the IC50 is reported as < 50 µM.
For `C[C@@]1(O)[C@H](O)[C@@H](COP(=O)(O)OP(=O)(O)OP(=O)(O)O)O[C@H]1n1nc(-c2cc[nH]n2)c2c(N)ncnc21` [Compound 26, 1-[5-O-(hydroxy{[hydroxy(phosphonooxy)phosphoryl]oxy}phosphoryl)-2-C-methyl-b-D-ribofuranosyl]-3-(1H-pyrazol-3-yl)-1H-pyrazolo[3,4-d]pyrimidin-4-amine], the IC50 was < 50 µM.
For `C[C@@]1(O)[C@H](O)[C@@H](COP(=O)(O)OP(=O)(O)OP(=O)(O)O)O[C@H]1n1cc(-c2cc[nH]n2)c2c(N)ncnc21` [Compound 14, 7-(2-C-methyl-5-triphospho-β-D-ribofuranosyl)-5-(1H-pyrazol-5-yl)-7H-pyrrolo[2,3-d]pyrimidin-4-amine], the IC50 was < 1 µM.
For `C[C@@]1(O)[C@H](O)[C@@H](COP(=O)(O)OP(=O)(O)OP(=O)(O)O)O[C@H]1n1cc(-c2ncco2)c2c(N)ncnc21` [Compound 11, 7-(2-C-methyl-5-triphospho-β-D-ribofuranosyl)-5-(1,3-oxazol-2-yl)-7H-pyrrolo[2,3-d]pyrimidin-4-amine], the IC50 was < 1 µM.
`COc1nc(-c2cn([C@@H]3O[C@H](COP(=O)(O)OP(=O)(O)OP(=O)(O)O)[C@@H](O)[C@@]3(C)O)c3ncnc(N)c23)cs1` [Compound 13, 5-(2-methoxy-1,3-thiazol-4-yl)-7-(2-C-methyl-5-triphospho-β-D-ribofuranosyl)-7H-pyrrolo[2,3-d]pyrimidin-4-amine] was tested, and the IC50 was < 50 µM.
In the case of `C[C@@]1(F)[C@H](O)[C@@H](COP(=O)(O)OP(=O)(O)OP(=O)(O)O)O[C@H]1n1cc(-c2ncon2)c2c(N)ncnc21` [Compound 18, 7-(2-deoxy-2-fluoro-2-methyl-5-triphospho-β-D-ribofuranosyl)-5-(1,2,4-oxadiazol-3-yl)-7H-pyrrolo[2,3-d]pyrimidin-4-amine], the IC50 is reported as < 1 µM.
`C[C@@]1(O)[C@H](O)[C@@H](COP(=O)(O)OP(=O)(O)OP(=O)(O)O)O[C@H]1n1cc(-c2ncccn2)c2c(N)ncnc21` [Compound 12, 7-(2-C-methyl-5-triphospho-β-D-ribofuranosyl)-5-pyrimidin-2-yl-7H-pyrrolo[2,3-d]pyrimidin-4-amine] was tested, and the IC50 was < 50 µM.
With `C[C@@]1(F)[C@H](O)[C@@H](COP(=O)(O)OP(=O)(O)OP(=O)(O)O)O[C@H]1n1cc(-c2ccn[nH]2)c2c(N)ncnc21` [Compound 20, 7-(2-deoxy-2-fluoro-2-methyl-5-triphospho-β-D-ribofuranosyl)-5-(1H-pyrazol-5-yl)-7H-pyrrolo[2,3-d]pyrimidin-4-amine] the IC50 was < 1 µM.
With “7-(2-C-methyl-5-triphospho-β-D-ribofuranosyl)-5-(1-methyl-1H-tetrazol-5-yl)-7H-pyrrolo[2,3-d]pyrimidin-4-amine and 7-(2-C-methyl-5-triphospho-β-D-ribofuranosyl)-5-(2-methyl-2H-tetrazol-5-yl)-7H-pyrrolo[2,3-d]pyrimidin-4-amine [Compound 10]” the IC50 was < 50 µM.
With `Cn1cc(-c2cn([C@@H]3O[C@H](COP(=O)(O)OP(=O)(O)OP(=O)(O)O)[C@@H](O)[C@@]3(C)O)c3ncnc(N)c23)nn1` [Compound 17, 7-(2-C-methyl-5-triphospho-β-D-ribofuranosyl)-5-(1-methyl-1H-1,2,3-triazol-4-yl)-7H-pyrrolo[2,3-d]pyrimidin-4-amine] the IC50 was < 50 µM.
For `C[C@@]1(F)[C@H](O)[C@@H](COP(=O)(O)OP(=O)(O)OP(=O)(O)O)O[C@H]1n1cc(-c2ncco2)c2c(N)ncnc21` [Compound 19, 7-(2-deoxy-2-fluoro-2-methyl-5-triphospho-β-D-ribofuranosyl)-5-(1,3-oxazol-2-yl)-7H-pyrrolo[2,3-d]pyrimidin-4-amine], the IC50 was < 1 µM.
For `C[C@@]1(O)[C@H](O)[C@@H](COP(=O)(O)OP(=O)(O)OP(=O)(O)O)O[C@H]1n1cc(-c2nnco2)c2c(N)ncnc21` [Compound 28, 7-(2-C-methyl-5-triphospho-β-D-ribofuranosyl)-5-(1,3,4-oxadiazol-2-yl)-7H-pyrrolo[2,3-d]pyrimidin-4-amine], the IC50 was < 50 µM.

The molecules below were run on subgenomic HCV Replicon in HuH-7 hepatoma cells (assay: Assay for inhibition of HCV RNA replication (subgenomic replicon, in situ ribonuclease protection SPA)). Conditions: Hepatitis C virus, Huh-7.
Format: cell-based, Hepatitis C Virus
Description: The compounds of the present invention were also evaluated for their ability to affect the replication of Hepatitis C Virus RNA in cultured hepatoma (HuH-7) cells containing a subgenomic HCV Replicon. The details of the assay are described below. This Replicon assay is a modification of that described in V. Lohmann, F. Korner, J-O. Koch, U. Herian, L. Theilmann, and R. Bartenschlager, “Replication of a Sub-genomic Hepatitis C Virus RNAs in a Hepatoma Cell Line,” Science 285:110 (1999).
The assay was an in situ Ribonuclease protection, Scintillation Proximity based-plate assay (SPA). 10,000-40,000 cells were plated in 100-200 μL of media containing 0.8 mg/mL G418 in 96-well cytostar plates (Amersham). Compounds were added to cells at various concentrations up to 100 μM in 1% DMSO at time 0 to 18 h and then cultured for 24-96 h. Cells were fixed (20 min, 10% formalin), permeabilized (20 min, 0.25% Triton X-100/PBS) and hybridized (overnight, 50° C.) with a single-stranded ^33P RNA probe complementary to the (+) strand NS5B (or other genes) contained in the RNA viral genome. Cells were washed, treated with RNAse, washed, heated to 65° C. and counted in a Top-Count Inhibition of replication was read as a decrease in counts per minute (cpm).
Human HuH-7 hepatoma cells, which were selected to contain a subgenomic replicon, carry a cytoplasmic RNA consisting of an HCV 5′ non-translated region (NTR), a neomycin selectable marker, an EMCV IRES (internal ribosome entry site), and HCV non-structural proteins NS3 through NS5B, followed by the 3′ NTR.
For `CCOC(=O)[C@H](C)NP(=O)(OC[C@H]1O[C@@H](n2cc(-c3ncco3)c3c(N)ncnc32)[C@](C)(O)[C@@H]1O)Oc1ccccc1` (stereo in doubt) [Compound 30, Ethyl 2-{[(R)-({(2R,3S,4R,5R)-5-[4-amino-5-(1,3-oxazol-2-yl)-7H-pyrrolo[2,3-d]pyrimidin-7-yl]-3,4-dihydroxy-4-methyltetrahydrofuran-2-yl}methoxy)(phenoxy)phosphoryl]amino}propanoate], the EC50 was < 20 µM.

Same assay, conditions: Hepatitis C virus; HuH-7 cells containing a subgenomic HCV Replicon, compounds up to 100 μM in 1% DMSO, cultured 24-96 h; read-out: EC50
With `C[C@@]1(O)[C@H](O)[C@@H](CO)O[C@H]1n1cc(-c2cccs2)c2c(N)ncnc21` [Compound 9, 7-(2-C-methyl-β-D-ribofuranosyl)-5-(2-thienyl)-7H-pyrrolo[2,3-d]pyrimidin-4-amine] the EC50 was < 20 µM.
With `C[C@@]1(O)[C@H](O)[C@@H](CO)O[C@H]1n1cc(-c2ncccn2)c2c(N)ncnc21` [Compound 3, 7-(2-C-methyl-β-D-ribofuranosyl)-5-pyrimidin-2-yl-7H-pyrrolo[2,3-d]pyrimidin-4-amine] the EC50 was > 50 µM.
In the case of `C[C@@]1(O)[C@H](O)[C@@H](CO)O[C@H]1n1cc(-c2cn[nH]c2)c2c(N)ncnc21` [Compound 6, 7-(2-C-methyl-β-D-ribofuranosyl)-5-(1H-pyrazol-4-yl)-7H-pyrrolo[2,3-d]pyrimidin-4-amine], the EC50 is reported as 20 to 50 µM.

— patent publication US20110306573A1, “NUCLEOSIDE DERIVATIVES AS INHIBITORS OF VIRAL POLYMERASES” (priority 2008, published 2011)
